Source: the RepoRT retention time repository (doi:10.1016/j.foodchem.2021.129757)
Structures can show the parent of a compound that is named as a salt.

Key:
Settings in all cases: stereoisomer not certain
[1] = RP, Waters ACQUITY UPLC HSS T3, 100 × 2.1 mm, 50 °C; A: water + 0.1% formic acid, pH 3; B: 30% methanol + 70% acetonitrile + 0.1% formic acid, pH 3; gradient (min/%B) 0/5 1/8 2/15 3/40 4/70 4.5/100 5/100 6.4/100 6.6/5 6.8/5 7/5
[2] = RP, Agilent ZORBAX Eclipse XDB-C18, 100 × 2.1 mm, 1.8 µm, 50 °C, 0.4 mL/min, estimated dead time 0.55 min; A: water + 0.1% formic acid, pH 3; B: methanol + 0.1% formic acid, pH 3; gradient (min/%B) 0/2 10/100 14.5/100 14.51/2 16.5/2
[3] = RP, Waters ACQUITY UPLC BEH C18, 100 × 2.1 mm, 1.7 µm, 65 °C, 0.4 mL/min, estimated dead time 0.55 min; A: water + 0.1% formic acid, pH 3; B: 80% acetonitrile + 20% acetone + 0.1% formic acid, pH 3; gradient (min/%B) 0/0 5/100 5.5/0 6/0
[4] = RP, Waters ACQUITY UPLC HSS T3, 100 × 2.1 mm, 1.8 µm, 30 °C, 0.4 mL/min, estimated dead time 0.55 min; A: water + 0.1% formic acid, pH 3; B: acetonitrile + 0.1% formic acid, pH 3; gradient (min/%B) 0/0 2/0 15/100 22/100 22.1/0 26/0
[5] = RP, Agilent ZORBAX RRHD Eclipse Plus C18, 50 × 2.1 mm, 1.8 µm, 30 °C, 0.4 mL/min, estimated dead time 0.28 min; A: water + 0.1% formic acid, pH 3; B: acetonitrile + 0.1% formic acid, pH 3; gradient (min/%B) 0/1 5/10 8/25 9.1/99 10/99 12/1
[6] = RP, Agilent ZORBAX RRHD Eclipse Plus C18, 50 × 2.1 mm, 1.8 µm, 30 °C, 0.4 mL/min, estimated dead time 0.28 min; A: water + 0.1% formic acid, pH 3; B: acetonitrile + 0.1% formic acid, pH 3; gradient (min/%B) 0/1 5/10 8/25 9.1/99 10/99 12/99
[7] = RP, Waters ACQUITY UPLC BEH Shield RP18, 150 × 2.1 mm, 1.7 µm, 40 °C, 0.4 mL/min, estimated dead time 0.83 min; A: water + 0.1% formic acid, pH 3; B: acetonitrile + 0.1% formic acid, pH 3; gradient (min/%B) 0/0 30/50 31/100 37/100 37.1/0

Row | LC retention time [1] | LC retention time [3] | SMILES | also measured
1 | 2 min |  | CC(C)(CO)C(O)C(=O)NCCC(=O)O (racemic) [DL-Pantothenic acid] | LC retention time [2]: 2.42 min
2 | 0.617 min |  | O=C(O)C1CCCCN1 (single isomer, unassigned; (+)) [(+)-Pipecolinic acid] | 
3 | 2.01 min | 1.45 min | Cn1c(=O)c2[nH]c(=O)[nH]c2n(C)c1=O [1,3-Dimethyluric acid] | LC retention time [4]: 7.03 min
4 | 1.27 min | 1.29 min | Cn1c(=O)[nH]c2[nH]c(=O)[nH]c2c1=O [1-Methyluric acid] | 
5 | 3.72 min |  | O=Cc1ccccc1O [2-Hydroxybenzaldehyde] | 
6 | 3.4 min |  | O=C(O)Cc1ccccc1O [2-Hydroxyphenylacetic acid] | LC retention time [2]: 3.82 min; LC retention time [4]: 9.13 min
7 | 3.4 min | 1.96 min | Cc1ccccc1C(=O)NCC(=O)O [2-Methylhippuric acid] | 
8 | 1.54 min |  | Cn1c(=O)[nH]c(=O)c2c1[nH]c(=O)n2C [3,7-Dimethyluric acid] | 
9 | 3.02 min |  | O=C(O)CCc1ccc(O)cc1O [3-(2,4-dihydroxyphenyl)propionic acid] | 
10 | 2.66 min |  | O=C(O)CCc1cc(O)cc(O)c1 [3-(3,5-Dihydroxyphenyl)propanoic acid] | 
11 |  | 1.58 min | O=C(O)CNC(=O)c1cccc(O)c1 [3-Hydroxyhippuric acid] | LC retention time [5]: 3.58 min; LC retention time [6]: 1.88 min
12 | 3.36 min | 1.89 min | O=C(OC1OC(C(=O)O)C(O)C(O)C1O)c1c[nH]c2ccccc12 (stereo not given) [3-Indole carboxylic acid glucuronide] | 
13 | 3.62 min | 2.35 min | O=C(O)Cc1c[nH]c2ccccc12 [3-Indoleacetic acid] | LC retention time [2]: 5 min
14 | 3.53 min | 2.14 min | O=C(O)C(O)Cc1c[nH]c2ccccc12 (stereo not given) [3-Indolelactic acid] | 
15 | 2.67 min | 1.68 min | O=S(=O)(O)Oc1c[nH]c2ccccc12 [3-Indoxyl sulfate] | 
16 | 1.45 min | 1.3 min | Cn1c(=O)[nH]c(=O)c2[nH]cnc21 [3-Methylxanthine] | 
17 | 2.86 min | 1.61 min | O=C(O)Cc1c[nH]c2ccc(O)cc12 [5-Hydroxyindole-3-acetic acid] | 
18 | 1.25 min |  | Cn1cnc2[nH]c(=O)[nH]c(=O)c21 [7-Methylxanthine] | 
19 |  |  | C=C1C(=O)OC2C1CCC(C)=C1C(=O)C=C(COC(=O)C(=O)O)C12 (stereo not given) [8-deoxylactucin-15-oxalate] | LC retention time [7]: 14.5 min
20 |  |  | C=C1C(=O)OC2C1CCC(C)=C1C(=O)C=C(CO)C12 (stereo not given) [8-deoxylactucin] | LC retention time [7]: 15.5 min
21 | 0.681 min |  | CC(=O)Nc1c(N)[nH]c(=O)n(C)c1=O [AAMU] | 

Row | LC retention time [1] | LC retention time [3] | SMILES | also measured
22 | 0.638 min |  | C=CCS(=O)CC(N)C(=O)O (stereo not given) [Alliin] | 
23 | 0.601 min |  | O=C1OC(C(O)CO)C(O)=C1O (stereo not given) [Ascorbic acid] | 
24 | 3.63 min | 2.33 min | O=C(O)CCCCCCCC(=O)O [Azelaic acid] | LC retention time [2]: 5.74 min
25 |  | 1.75 min | Oc1ccccc1O [Catechol] | LC retention time [7]: 4.35 min; LC retention time [5]: 3.15 min; LC retention time [6]: 3.97 min
26 | 1.54 min | 1.37 min | CC(O)C1NC(=O)C2CCCN2C1=O (stereo not given) [Cyclo(Pro-Thr)] | 
27 | 3.1 min | 1.88 min | CC(C)C1NC(=O)C2CCCN2C1=O (stereo not given) [Cyclo(Pro-Val)] | LC retention time [4]: 8.07 min
28 |  |  | CC1=C2C(=O)C=C(COC(=O)C(=O)O)C2C2OC(=O)C(C)C2CC1 (stereo not given) [Dihydro-8-deoxylactucin-15-oxalate] | LC retention time [7]: 14.9 min
29 |  |  | CC1=C2C(=O)C=C(CO)C2C2OC(=O)C(C)C2CC1 (stereo not given) [Dihydro-8-deoxylactucin] | LC retention time [7]: 14.5 min
30 |  |  | COc1cc(CCC(=O)O)ccc1O [Dihydroferulic acid] | LC retention time [7]: 8.81 min; LC retention time [5]: 7.16 min; LC retention time [6]: 4.07 min
31 |  |  | O=C1c2c(O)cc(O)cc2OC(c2ccc(O)cc2)C1O (stereo not given) [Dihydrokaempferol] | LC retention time [7]: 15.3 min
32 |  |  | CC1=C2C(=O)C=C(COC(=O)C(=O)O)C2C2OC(=O)C(C)C2C(O)C1 (stereo not given) [Dihydrolactucin-15-oxalate] | LC retention time [7]: 9.7 min
33 |  |  | CC1=C2C(=O)C=C(CO)C2C2OC(=O)C(C)C2C(O)C1 (stereo not given) [Dihydrolactucin] | LC retention time [7]: 10.5 min
34 |  |  | CC1=C2C(=O)C=C(COC(=O)C(=O)O)C2C2OC(=O)C(C)C2C(OC(=O)Cc2ccc(O)cc2)C1 (stereo not given) [Dihydrolactucopicrin-15-oxalate] | LC retention time [7]: 17.3 min
35 | 3.6 min |  | COc1ccc(-c2cc(=O)c3c(O)cc(OC4OC(C(=O)O)C(O)C(O)C4O)cc3o2)cc1O (stereo not given) [Diosmetin 7-glucuronide] | 
36 | 0.706 min |  | NCCc1ccc(O)c(O)c1 [Dopamine] | LC retention time [4]: 1.3 min
37 |  | 1.45 min | COc1cc(CC(=O)O)ccc1OS(=O)(=O)O [Homovanillic acid sulfate] | LC retention time [5]: 4.48 min; LC retention time [6]: 2.12 min
38 | 0.909 min |  | O=C(O)C1OC(Oc2ccc(O)cc2)C(O)C(O)C1O (stereo not given) [Hydroquinone glucuronide] | 
39 | 0.466 min |  | O=C(O)C1CC(O)CN1 (stereo not given) [Hydroxyproline] | 
40 | 3.46 min |  | O=C(Cc1c[nH]c2ccccc12)OC1OC(C(=O)O)C(O)C(O)C1O (stereo not given) [Indole-3-acetic acid glucuronide] | 
41 | 3.56 min | 2.13 min | O=C(O)CNC(=O)C=Cc1c[nH]c2ccccc12 [Indole-3-acryloylglycine] | 
42 | 2.92 min |  | OCC1OC(Oc2c[nH]c3ccccc23)C(O)C(O)C1O (stereo not drawn) [Indoxyl beta-d-glucoside] | 

Row | LC retention time [1] | LC retention time [3] | SMILES | also measured
43 | 2.94 min | 1.73 min | O=C(O)C1OC(Oc2c[nH]c3ccccc23)C(O)C(O)C1O (stereo not drawn) [Indoxyl beta-d-glucuronide] | 
44 | 3.03 min | 1.7 min | c1coc(CNc2ncnc3nc[nH]c23)c1 [Kinetin] | 
45 | 0.483 min |  | NC(=O)NCCC[C@H](N)C(=O)O [L-Citrulline] | 
46 |  |  | C=C1C(=O)OC2C3C(CO)=CC(=O)C3=C(C)CC(O)C12 (stereo not given) [Lactucin] | LC retention time [7]: 11.2 min
47 |  |  | C=C1C(=O)OC2C3C(CO)=CC(=O)C3=C(C)CC(OC(=O)Cc3ccc(O)cc3)C12 (stereo not given) [Lactucopicrin] | LC retention time [7]: 18.4 min
48 | 1.46 min | 1.4 min | CC(=O)CCC(=O)O [Levulinic acid] | 
49 | 0.49 min |  | CN(C)CC(=O)O [N,N-Dimethylglycine] | 
50 | 2.61 min | 0.821 min | Cc1ncc(CO)c(C=O)c1O [Pyridoxal] | LC retention time [2]: 1.35 min
51 | 2.61 min | 1.68 min | O=C(O)c1ccc[nH]1 [Pyrrole-2-carboxylic acid] | 
52 | 2.57 min |  | O=C(O)c1cc(=O)c2cccc(O)c2[nH]1 [Xanthurenic acid] | 
53 |  |  | O=c1c(O)c(-c2ccccc2)oc2cc(O)cc(O)c12 [galangin] | LC retention time [7]: 29.4 min
54 |  |  | C=C1C(=O)OC2C3C(COC(=O)C(=O)O)=CC(=O)C3=C(C)CC(O)C12 (stereo not given) [lactucin-15-oxalate] | LC retention time [7]: 10.4 min
55 |  |  | C=C1C(=O)OC2C3C(COC(=O)C(=O)O)=CC(=O)C3=C(C)CC(OC(=O)Cc3ccc(O)cc3)C12 (stereo not given) [lactucopicrin-15-oxalate] | LC retention time [7]: 17.2 min
56 | 3.44 min | 2 min | Cc1cccc(OS(=O)(=O)O)c1 [m-Cresol sulfate] | 
57 | 3.38 min | 1.93 min | Cc1ccccc1OS(=O)(=O)O [o-Cresol sulfate] | 
58 | 3.44 min | 2.01 min | Cc1ccc(OC2OC(C(=O)O)C(O)C(O)C2O)cc1 (stereo not given) [p-Cresol glucuronide] | 
59 | 3.38 min | 1.99 min | Cc1ccc(OS(=O)(=O)O)cc1 [p-Cresol sulfate] | 
60 | 2.66 min |  | O=C(O)C(O)Cc1ccc(O)cc1 (stereo not given) [p-Hydroxyphenyllactic acid] | LC retention time [2]: 2.73 min
61 |  |  | CCCOC(=O)c1cc(O)c(O)c(O)c1 [propyl gallate] | LC retention time [7]: 12.8 min

Row | SMILES | LC retention time [1] | LC retention time [3] | also measured
62 | NCCc1ccc(OS(=O)(=O)O)c(O)c1 [Dopamine 4-O-sulfate] | 0.606 min | 1.3 min | 
63 | CS(=O)CCCN=C=S (stereo not given) [Iberin] | 3.25 min |  | 
